In patent US10590140B2, “Tetrahydropyrimidodiazepine and dihydropyridodiazepine compounds for treating pain and pain related conditions” (ESTEVE PHARMACEUTICALS, S.A., priority 2016, dated 2020):
Read-outs that look alike come from different tables or passages of the source.

How the values were obtained:
[1] = target: human norepinephrine transporter (NET) (Homo sapiens (Human), UniProt P23975); experiment: Binding assay to human norepinephrine transporter (NET) ([3H]-Nisoxetin); settings: Table 2, dual compounds; [3H]-Nisoxetin binding
Chain of human norepinephrine transporter (NET) (P23975 whole entry): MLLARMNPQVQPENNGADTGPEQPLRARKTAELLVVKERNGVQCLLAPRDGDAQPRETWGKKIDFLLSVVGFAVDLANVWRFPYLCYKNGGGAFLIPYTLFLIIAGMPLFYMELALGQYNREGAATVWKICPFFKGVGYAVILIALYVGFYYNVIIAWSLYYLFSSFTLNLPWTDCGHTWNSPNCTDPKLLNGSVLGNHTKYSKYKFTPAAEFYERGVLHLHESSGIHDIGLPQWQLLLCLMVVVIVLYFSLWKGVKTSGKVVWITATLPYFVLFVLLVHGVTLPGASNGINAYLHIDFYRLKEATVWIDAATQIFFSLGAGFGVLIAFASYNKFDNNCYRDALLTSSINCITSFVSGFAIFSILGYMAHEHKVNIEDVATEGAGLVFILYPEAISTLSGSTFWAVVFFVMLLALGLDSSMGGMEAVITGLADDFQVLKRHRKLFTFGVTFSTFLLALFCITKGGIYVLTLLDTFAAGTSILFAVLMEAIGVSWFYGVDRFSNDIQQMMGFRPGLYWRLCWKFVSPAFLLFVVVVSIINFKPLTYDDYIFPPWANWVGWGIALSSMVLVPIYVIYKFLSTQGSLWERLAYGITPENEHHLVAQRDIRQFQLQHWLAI
Procedure, shortened: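 NET-enriched membranes (5 μg) incubated with 5 nM [3H]-nisoxetin in 50 mM Tris-HCl, 120 mM NaCl, 5 mM KCl, pH 7.4, 60 min at 4 °C. Bound ligand separated by filtration on PEI-soaked GF/C and counted by scintillation; nonspecific binding defined with 1 μM competitor.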

[2] = target: human α2δ-1 subunit of Cav2.2 calcium channel (Homo sapiens (Human), UniProt P54289); experiment: Binding assay to human α2δ-1 subunit of Cav2.2 calcium channel ([3H]-Gabapentin); settings: read-out: Ki (nM) α2δ-1
Chain of human α2δ-1 subunit of Cav2.2 calcium channel (P54289 25-1103): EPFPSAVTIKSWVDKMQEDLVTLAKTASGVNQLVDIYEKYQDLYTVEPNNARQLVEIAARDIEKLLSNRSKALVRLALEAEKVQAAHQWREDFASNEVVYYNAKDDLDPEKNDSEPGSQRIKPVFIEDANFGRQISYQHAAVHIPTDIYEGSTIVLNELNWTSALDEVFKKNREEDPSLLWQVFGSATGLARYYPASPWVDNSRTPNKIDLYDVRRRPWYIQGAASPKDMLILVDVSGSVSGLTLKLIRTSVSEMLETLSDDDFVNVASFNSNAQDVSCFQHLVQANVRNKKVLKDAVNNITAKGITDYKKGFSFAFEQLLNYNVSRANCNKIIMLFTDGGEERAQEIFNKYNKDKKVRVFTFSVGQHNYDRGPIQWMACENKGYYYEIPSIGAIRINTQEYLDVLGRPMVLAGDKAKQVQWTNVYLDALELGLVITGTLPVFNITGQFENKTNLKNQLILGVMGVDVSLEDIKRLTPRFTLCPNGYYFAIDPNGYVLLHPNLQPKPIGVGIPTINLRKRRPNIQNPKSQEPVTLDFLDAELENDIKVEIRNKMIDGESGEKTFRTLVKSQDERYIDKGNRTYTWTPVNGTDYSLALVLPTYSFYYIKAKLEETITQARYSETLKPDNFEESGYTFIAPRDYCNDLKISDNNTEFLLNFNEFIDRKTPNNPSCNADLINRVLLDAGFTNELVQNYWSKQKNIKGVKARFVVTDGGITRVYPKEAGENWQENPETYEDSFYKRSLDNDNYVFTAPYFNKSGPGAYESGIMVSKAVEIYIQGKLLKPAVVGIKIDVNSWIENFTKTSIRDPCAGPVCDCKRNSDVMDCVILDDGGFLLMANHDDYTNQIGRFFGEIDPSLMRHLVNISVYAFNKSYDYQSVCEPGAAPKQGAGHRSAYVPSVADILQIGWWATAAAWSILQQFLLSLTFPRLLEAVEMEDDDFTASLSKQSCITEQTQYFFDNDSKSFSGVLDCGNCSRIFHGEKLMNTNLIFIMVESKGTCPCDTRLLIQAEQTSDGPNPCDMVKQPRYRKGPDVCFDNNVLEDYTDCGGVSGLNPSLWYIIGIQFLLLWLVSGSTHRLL
Procedure, shortened: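 Radioactivity on dried GF/C filters quantified by scintillation after filtration and three cold Tris-HCl (pH 7.4) washes. Incubation ran 60 min at 27° C with [3H]-gabapentin; 10 μM pregabalin gave nonspecific binding.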

[3] = Table 2, dual compounds, [3H]-Gabapentin binding
[4] = binding to α2δ-1, [3H]-Gabapentin

SMILES: CCNc1ncc2c(n1)N(C)CCN(c1cccc(-n3cc(CN4CCC(c5ccccc5)CC4)nn3)c1)C2=O [Example 278, 2-(Ethylamino)-9-methyl-6-(3-(4-((4-phenylpiperidin-1-yl)methyl)-1H-1,2,3-triazol-1-yl)phenyl)-6,7,8,9-tetrahydro-5H-pyrimido[4,5-e][1,4]diazepin-5-one]
- Ki [1]: < 100 nM
- Ki [2, 3]: 500 to 3000 nM
- Ki [2, 4]: 500 to 3000 nM

SMILES: CNCC[C@H](Oc1ccc(CN2CCN(C)c3cc(C)ncc3C2=O)cc1)c1cccs1 [Example 308, (S)-1,8-dimethyl-4-(4-(3-(methylamino)-1-(thiophen-2-yl)propoxy)benzyl)-1,2,3,4-tetrahydro-5H-pyrido[4,3-e][1,4]diazepin-5-one]
- Ki [1]: 100 to 500 nM
- Ki [2, 3]: 100 to 500 nM
- Ki [2, 4]: 100 to 500 nM

SMILES: CNCCC(Oc1ccc(CN2CCN(C)c3ccncc3C2=O)cc1)c1cccs1 (stereo not drawn) [Example 381, 1-methyl-4-(4-(3-(methylamino)-1-(thiophen-2-yl)propoxy)benzyl)-1,2,3,4-tetrahydro-5H-pyrido[4,3-e][1,4]diazepin-5-one]
- Ki [1]: 100 to 500 nM
- Ki [2, 3]: 100 to 500 nM
- Ki [2, 4]: 100 to 500 nM

SMILES: CNCCC(Oc1ccc(CN2CCN(C)c3ncncc3C2=O)cc1)c1ccccc1 (stereo not drawn) [Example 430, 9-methyl-6-(4-(3-(methylamino)-1-phenylpropoxy)benzyl)-6,7,8,9-tetrahydro-5H-pyrimido[4,5-e][1,4]diazepin-5-one]
- Ki [1]: < 100 nM
- Ki [2, 3]: 500 to 3000 nM
- Ki [2, 4]: 500 to 3000 nM

SMILES: CNCC[C@@H](OCc1cccc(N2CCN(C)c3nc(N(C)C)ncc3C2=O)c1)c1ccccc1 [Example 196, (R)-2-(dimethylamino)-9-methyl-6-(3-((3-(methylamino)-1-phenylpropoxy)methyl)phenyl)-6,7,8,9-tetrahydro-5H-pyrimido[4,5-e][1,4]diazepin-5-one]
- Ki [1]: 500 to 1000 nM
- Ki [2, 3]: 500 to 3000 nM
- Ki [2, 4]: 500 to 3000 nM

SMILES: CCNc1ncc2c(n1)N(C)CCN(c1cccc(-n3cc(CN(C)CC4CC4)nn3)c1)C2=O [Example 246, 6-(3-(4-(((cyclopropylmethyl)(methyl)amino)methyl)-1H-1,2,3-triazol-1-yl)phenyl)-2-(ethylamino)-9-methyl-6,7,8,9-tetrahydro-5H-pyrimido[4,5-e][1,4]diazepin-5-one]
- Ki [1]: 100 to 500 nM
- Ki [2, 3]: 100 to 500 nM
- Ki [2, 4]: 100 to 500 nM

SMILES: CCNc1ncc2c(n1)N(C)CCN(c1ccc(COC(CCNC)c3cccs3)cc1)C2=O (stereo not drawn) [Example 348, 2-(ethylamino)-9-methyl-6-(4-((3-(methylamino)-1-(thiophen-2-yl)propoxy)methyl)phenyl)-6,7,8,9-tetrahydro-5H-pyrimido[4,5-e][1,4]diazepin-5-one]
- Ki [1]: 100 to 500 nM
- Ki [2, 3]: > 3000 nM
- Ki [2, 4]: > 3000 nM

SMILES: CCNc1ncc2c(n1)N(C)CCN(Cc1ccc(COC(CCNC)c3ccccc3)cc1)C2=O (stereo not drawn) [Example 405, 2-(ethylamino)-9-methyl-6-(4-((3-(methylamino)-1-phenylpropoxy)methyl)benzyl)-6,7,8,9-tetrahydro-5H-pyrimido[4,5-e][1,4]diazepin-5-one]
- Ki [1]: 100 to 500 nM
- Ki [2, 3]: > 3000 nM
- Ki [2, 4]: > 3000 nM

SMILES: CNCCC(OCc1cccc(N2CCN(C)c3nc(C(F)(F)F)ncc3C2=O)c1)c1ccccc1 (stereo not drawn) [Example 322, 9-methyl-6-(3-((3-(methylamino)-1-phenylpropoxy)methyl)phenyl)-2-(trifluoromethyl)-6,7,8,9-tetrahydro-5H-pyrimido[4,5-e][1,4]diazepin-5-one]
- Ki [1]: 100 to 500 nM
- Ki [2, 3]: > 3000 nM
- Ki [2, 4]: > 3000 nM

SMILES: CCNc1ncc2c(n1)N(C)CCN(c1cccc(COCC(NC)c3ccccc3)c1)C2=O (stereo not drawn) [Example 166, 2-(ethylamino)-9-methyl-6-(3-((2-(methylamino)-2-phenylethoxy)methyl)phenyl)-6,7,8,9-tetrahydro-5H-pyrimido[4,5-e][1,4]diazepin-5-one]
- Ki [1]: 500 to 1000 nM
- Ki [2, 3]: 500 to 3000 nM
- Ki [2, 4]: > 3000 nM

SMILES: CNCC(OCc1cccc(N2CCN(C)c3nc(SC)ncc3C2=O)c1)c1ccccc1 (stereo not drawn) [Example 226, 9-methyl-6-(3-((2-(methylamino)-1-phenylethoxy)methyl)phenyl)-2-(methylthio)-6,7,8,9-tetrahydro-5H-pyrimido[4,5-e][1,4]diazepin-5-one]
- Ki [1]: 500 to 1000 nM
- Ki [2, 3]: > 3000 nM
- Ki [2, 4]: > 3000 nM

SMILES: CNCCC(Oc1ccc(CN2CCN(C)c3nc(SC)ncc3C2=O)cc1)c1ccccc1 (stereo not drawn) [Example 369, 9-methyl-6-(4-(3-(methylamino)-1-phenylpropoxy)benzyl)-2-(methylthio)-6,7,8,9-tetrahydro-5H-pyrimido[4,5-e][1,4]diazepin-5-one]
- Ki [1]: < 100 nM
- Ki [2, 3]: 500 to 3000 nM
- Ki [2, 4]: 500 to 3000 nM

SMILES: CCNc1ncc2c(n1)N(C)CCN(Cc1ccc(OC(CCNC)c3ccccc3)cc1)C2=O (stereo not drawn) [Example 408, 2-(ethylamino)-9-methyl-6-(4-(3-(methylamino)-1-phenylpropoxy)benzyl)-6,7,8,9-tetrahydro-5H-pyrimido[4,5-e][1,4]diazepin-5-one]
- Ki [1]: < 100 nM
- Ki [2, 3]: 500 to 3000 nM
- Ki [2, 4]: 500 to 3000 nM

SMILES: CCNc1ncc2c(n1)N(C)CCN(c1cccc(COC3(c4ccccc4)CCNCC3)c1)C2=O [Example 176, 2-(ethylamino)-9-methyl-6-(3-(((4-phenylpiperidin-4-yl)oxy)methyl)phenyl)-6,7,8,9-tetrahydro-5H-pyrimido[4,5-e][1,4]diazepin-5-one]
- Ki [1]: > 1000 nM
- Ki [2, 3]: 500 to 3000 nM
- Ki [2, 4]: 500 to 3000 nM

SMILES: CNCCC(OCc1cccc(N2CCN(C)c3nc(SC)ncc3C2=O)c1)c1ccccc1 (stereo not drawn) [Example 163, 9-methyl-6-(3-((3-(methylamino)-1-phenylpropoxy)methyl)phenyl)-2-(methylthio)-6,7,8,9-tetrahydro-5H-pyrimido[4,5-e][1,4]diazepin-5-one]
- Ki [1]: 100 to 500 nM
- Ki [2, 3]: 500 to 3000 nM
- Ki [2, 4]: 500 to 3000 nM

SMILES: CNCC[C@H](Oc1ccc(CN2CCN(C)c3ccncc3C2=O)cc1)c1cccs1 [Example 382, (S)-1-methyl-4-(4-(3-(methylamino)-1-(thiophen-2-yl)propoxy)benzyl)-1,2,3,4-tetrahydro-5H-pyrido[4,3-e][1,4]diazepin-5-one]
- Ki [1]: 100 to 500 nM
- Ki [2, 3]: 100 to 500 nM
- Ki [2, 4]: 100 to 500 nM

SMILES: CNCC(OCc1ccc(CN2CCN(C)c3nc(SC)ncc3C2=O)cc1)c1ccccc1 (stereo not drawn) [Example 374, 9-methyl-6-(4-((2-(methylamino)-1-phenylethoxy)methyl)benzyl)-2-(methylthio)-6,7,8,9-tetrahydro-5H-pyrimido[4,5-e][1,4]diazepin-5-one]
- Ki [1]: 100 to 500 nM
- Ki [2, 3]: > 3000 nM
- Ki [2, 4]: > 3000 nM

SMILES: CNCCC(Oc1ccc(CN2CCN(C)c3nc(OC)ncc3C2=O)cc1)c1sccc1C (stereo not drawn) [Example 388, 2-methoxy-9-methyl-6-(4-(3-(methylamino)-1-(3-methylthiophen-2-yl)propoxy)benzyl)-6,7,8,9-tetrahydro-5H-pyrimido[4,5-e][1,4]diazepin-5-one]
- Ki [1]: < 100 nM
- Ki [2, 3]: > 3000 nM
- Ki [2, 4]: > 3000 nM

SMILES: CNC(COCc1cccc(N2CCN(C)c3nc(SC)ncc3C2=O)c1)c1ccccc1 (stereo not drawn) [Example 167, 9-methyl-6-(3-((2-(methylamino)-2-phenylethoxy)methyl)phenyl)-2-(methylthio)-6,7,8,9-tetrahydro-5H-pyrimido[4,5-e][1,4]diazepin-5-one]
- Ki [1]: > 1000 nM
- Ki [2, 3]: > 3000 nM
- Ki [2, 4]: > 3000 nM

SMILES: CNCCC(OCc1cccc(CN2CCN(C)c3nc(C)ncc3C2=O)c1)c1ccccc1 (stereo not drawn) [Example 423, 2,9-dimethyl-6-(3-((3-(methylamino)-1-phenylpropoxy)methyl)benzyl)-6,7,8,9-tetrahydro-5H-pyrimido[4,5-e][1,4]diazepin-5-one]
- Ki [1]: 100 to 500 nM
- Ki [2, 3]: > 3000 nM
- Ki [2, 4]: > 3000 nM

SMILES: CCNc1cc2c(cn1)C(=O)N(c1cccc(OC(CCNC)c3ccccc3)c1)CCN2C (stereo not drawn) [Example 198, 8-(ethylamino)-1-methyl-4-(3-(3-(methylamino)-1-phenylpropoxy)phenyl)-1,2,3,4-tetrahydro-5H-pyrido[4,3-e][1,4]diazepin-5-one]
- Ki [1]: 100 to 500 nM
- Ki [2, 3]: 500 to 3000 nM
- Ki [2, 4]: 500 to 3000 nM

SMILES: CNCC[C@@H](OCc1cccc(N2CCN(C)c3nc(NC)ncc3C2=O)c1)c1ccccc1 [Example 197, (R)-9-methyl-2-(methylamino)-6-(3-((3-(methylamino)-1-phenylpropoxy)methyl)phenyl)-6,7,8,9-tetrahydro-5H-pyrimido[4,5-e][1,4]diazepin-5-one]
- Ki [1]: 500 to 1000 nM
- Ki [2, 3]: 500 to 3000 nM
- Ki [2, 4]: 500 to 3000 nM

SMILES: CNCCC(OCc1ccc(CN2CCN(C)c3nc(SC)ncc3C2=O)cc1)c1ccccc1 (stereo not drawn) [Example 368, 9-methyl-6-(4-((3-(methylamino)-1-phenylpropoxy)methyl)benzyl)-2-(methylthio)-6,7,8,9-tetrahydro-5H-pyrimido[4,5-e][1,4]diazepin-5-one]
- Ki [1]: 100 to 500 nM
- Ki [2, 3]: > 3000 nM
- Ki [2, 4]: > 3000 nM

SMILES: CNCCC(Oc1ccc(N2CCN(C)c3nc(SC)ncc3C2=O)cc1)c1ccccc1 (stereo not drawn) [Example 316, 9-methyl-6-(4-(3-(methylamino)-1-phenylpropoxy)phenyl)-2-(methylthio)-6,7,8,9-tetrahydro-5H-pyrimido[4,5-e][1,4]diazepin-5-one]
- Ki [1]: 500 to 1000 nM
- Ki [2, 3]: > 3000 nM
- Ki [2, 4]: > 3000 nM

SMILES: CNCCC(Oc1cccc(N2CCN(C)c3cc(C)ncc3C2=O)c1)c1cccs1 (stereo not drawn) [Example 307, 1,8-dimethyl-4-(3-(3-(methylamino)-1-(thiophen-2-yl)propoxy)phenyl)-1,2,3,4-tetrahydro-5H-pyrido[4,3-e][1,4]diazepin-5-one]
- Ki [1]: 100 to 500 nM
- Ki [2, 3]: 100 to 500 nM
- Ki [2, 4]: 100 to 500 nM
